Measurements published in US12097380B2, “Shielding of magnetic field as a medical therapy” (Micromed Scientia, Inc., priority 2012, dated 2024).

Tests used:
[1] = test system: non-small cell lung cancer cells A549; test: In vitro growth of A549 cells in the presence of Taxol, iron shielding box vs plastic box (CCK-8 cell viability); assay type: cell-based, human
Experimental: (§1) The surrounding magnetic field shielding device and the plastic box used in this experiment were the same as those described in Example 2 above.
The human non-small cell lung cancer cells (A549) and human breast cancer cell (MCF-7) were supplied by the Cell Resource Center, Shanghai Institute of Life Sciences. The cells were maintained in a monolayer and were grown at 37° C. in an atmosphere of 5% CO2 with moisture in RPMI 1640 medium, supplemented with 10% fetal bovine serum. The medium also contained […] Penicillin and 100 mg/L Streptomycin. The cells at exponentially growing phase were used in the experiments.
(§2) The human non-small cell lung cancer cells (A549) or the human breast cancer cells (MCF-7) were grown in 96 well plates. The growth of non-small cell lung cancer cell line and the breast cancer cell line were investigated while being exposed to environmental magnetic field or being shielded from environmental magnetic field. Each cell culture was separated into three equal portions. The first sample was cultured in a surrounding magnetic field shielded box (an iron shielding box). The second sample was cultured in a plastic box, and the third sample was cultured in the absence of any surrounding box as a control. All of the samples were placed in the incubator with an atmosphere containing 5% CO2 and at a temperature of 37° C. The cell growth rates were examined periodically by harvesting the cells and determining cell viability using the cell counting kit-8 and microplate reader RT-6000. The experiments were continued for four to seven days depending on the cell types and the respective growth rates.
(§3) Cell count kit-8 (CCK-8) ([…] manufactured by Dojindo Molecular Technologies, Inc.) allows sensitive colorimetric assays for the determination of cell viability. […]

[2] = test system: Taxol-resistant non-small cell lung cancer cells A549-T24; test: In vitro growth of Taxol-resistant A549-T24 cells in the presence of Taxol, iron shielding box vs plastic box (CCK-8 cell viability); assay type: cell-based, human; conditions: for growth of A549-T24 in the iron shielding box slower than the control cultured in a plastic box: 12 nM Taxol in medium, 37° C., shielded vs unshielded
Excerpt: as §1
The protocol described by Kavallaris et al., J. Clin. Invest., 100(5): 1282-1293 (1997)^[13] was followed to culture taxol-resistant human lung carcinoma cells A549. The human non-small cell lung cancer cells A549 were maintained in RPMI 1640 containing 10% FBS and 1% Penicillin-Streptomycin. For inducing its resistance to Taxol, in a stepwise manner, Taxol was added into the culture medium with periodically increasing its concentration. A549 cells were initially exposed to 3 nM of Taxol, and once normal growth was achieved, cells were maintained at this concentration. In two weeks, the Taxol dose was increased by two-fold, such as 3 nM, 6 nM, 12 nM, until the final drug concentration of 24 nM was achieved to develop Taxol-resistant cells. The obtained cells were maintained at a Taxol concentration of 24 nM. These Taxol-resistant cells were named as A549-T24.
as §2, with “The experiments were continued for four to seven days depending on the cell types and the respective growth rates.” left out
as §3

[3] = test system: most sensitive non-small lung cancer cell; conditions: as reported by Georgiadis et al. 1997, read-out: IC50 to Taxol; cited from earlier work

Structure (SMILES): CC(=O)O[C@H]1C(=O)[C@@]2(C)[C@H]([C@H](OC(=O)c3ccccc3)[C@]3(O)C[C@H](OC(=O)[C@H](O)[C@@H](NC(=O)c4ccccc4)c4ccccc4)C(C)=C1C3(C)C)[C@]1(OC(C)=O)CO[C@@H]1C[C@@H]2O [Taxol, Paclitaxel]
- growth of A549 in the iron shielding box slower than the control cultured in a plastic box ([1]; 5 nM Taxol in medium, 37° C., 3 days of incubation, shielded vs unshielded, P<0.001): 16.3%
- growth of A549 in the iron shielding box decreased in comparison to the control cultured in a plastic box ([1]; 5 nM Taxol in medium, 37° C., 5 days of incubation, shielded vs unshielded, P<0.0005): 47.3%
- IC50 ([1]; Homo sapiens, 120 h, A549, under shielding of environmental magnetic field, 5 days, read-out: IC50 of Taxol (drug concentration at which cell growth is suppressed to 50%)): ~5 nM
- growth of A549-T24 in the iron shielding box slower than the control cultured in a plastic box ([2]; day 3, P<0.01): 11.2%
- growth of A549-T24 in the iron shielding box slower than the control cultured in a plastic box ([2]; day 4, P<0.001): 10.7%
- IC50 ([2]; Homo sapiens, 96 h, A549-T24, under shielding of surrounding magnetic field, day 4): ~10 nM
- IC50 [3]: 9.9 nM
